ChEMBL document CHEMBL1150959 (J Nat Prod, 1998)
The source made the active and inactive calls. No cut-off for these calls is given here.

What was measured:
[1] = biological target: Prostaglandin G/H synthase 1 (Bos taurus) (UniProt O62698); assay: Inhibition of COX1-catalyzed prostaglandin biosynthesis at 100 ug/ml without preincubation
[2] = biological target: Prostaglandin G/H synthase 1 (Bos taurus) (UniProt O62698); assay: Inhibition of COX1-catalyzed prostaglandin biosynthesis at 200 ug/ml without preincubation; conditions: TDE = time-dependent effect
[3] = biological target: Prostaglandin G/H synthase 1 (Bos taurus) (UniProt O62698); assay: Inhibition of COX1-catalyzed prostaglandin biosynthesis 10 mins of preincubation
[4] = Ratio of IC50 for COX2 to IC50 for COX1

Prostaglandin G/H synthase 1 (Bos taurus), sequence (O62698 whole entry, looked up): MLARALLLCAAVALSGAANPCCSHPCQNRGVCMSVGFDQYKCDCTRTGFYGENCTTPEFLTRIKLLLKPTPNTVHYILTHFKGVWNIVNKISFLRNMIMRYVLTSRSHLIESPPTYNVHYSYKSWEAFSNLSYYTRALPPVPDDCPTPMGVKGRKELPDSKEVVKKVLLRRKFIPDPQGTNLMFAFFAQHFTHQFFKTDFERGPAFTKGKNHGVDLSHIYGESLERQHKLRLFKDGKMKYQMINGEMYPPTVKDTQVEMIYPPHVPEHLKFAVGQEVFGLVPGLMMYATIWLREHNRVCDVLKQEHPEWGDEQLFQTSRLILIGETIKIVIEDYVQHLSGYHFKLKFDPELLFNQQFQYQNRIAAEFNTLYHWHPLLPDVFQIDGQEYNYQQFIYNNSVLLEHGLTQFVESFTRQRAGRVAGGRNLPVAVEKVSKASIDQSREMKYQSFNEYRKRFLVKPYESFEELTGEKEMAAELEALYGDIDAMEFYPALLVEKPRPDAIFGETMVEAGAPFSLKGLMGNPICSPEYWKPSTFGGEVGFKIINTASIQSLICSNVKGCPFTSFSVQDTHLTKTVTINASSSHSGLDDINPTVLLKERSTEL

Activity [1]: Active | Activity [2]: tde | IC50 [3]: 210 µM | Ratio IC50 [4]: 0.6
Structure (SMILES): C[C@H]1[C@H](C)CC[C@]2(C(=O)O)CC[C@]3(C)C(=CC[C@@H]4[C@@]5(C)CC[C@H](O)C(C)(C)[C@@H]5CC[C@]43C)[C@H]12 [URSOLIC ACID]
